# Reference: patent US8039501B2, “Synephrine derivatives useful as anti-inflammatory agents” (Universiteit Gent, priority 2005, dated 2011)
# Test system: NFκB
# Test: EMSA of NFkB DNA binding in MCF7 cells
# Type: cell-based, human
# Conditions: pre-treated 10, 1, 0.1, 0.01, 0.001 μM for two hours, TNF 2000 IU/ml 30 min, FIG. 7A
# Experimental: For the EMSA, the MCF7 cells were pre-treated with varying concentrations of CpdA (10, 1, 0.1, 0.01, and 0.001 μM) and DEX (0.1 μM) for two hours and subsequently TNF-induced or non-TNF-induced during 30 min at 2000 IU/ml. After the induction period, nuclear extracts were examined in EMSA assays. Cells were washed with ice-cold PBS, scraped off, and pelleted in 15 ml of PBS by centrifugation for 5 min at 2600 rpm at 4° C. and lysed for 30 minutes at 4° C. in Totex buffer (20 mM HEPES (pH 7.9), 350 mM NaCl, 1 mM MgCl, 0.5 mM EDTA, 0.1 mM EGTA, 5 mM DTT, 20% glycerol, 1% NP-40, 0.1% PMSF, 1% aprotinin (4 mg/ml leupeptin). Supernatants from a 4000-rpm 10-min centrifugation were collected, aliquoted and stored at −20° C. until further use. Radiolabelled oligonucleotides that correspond to a consensus κB DNA-binding element of the IL-6 promoter, and of activating protein 1 (AP-1) DNA target-were used for appropriate EMSA's. These oligonucleotides of about 25 nucleotides comprise centrally the transcription factor binding motif. […] The samples were analyzed by electrophoresis on 6% native polyacrylamide gels. […] Visualization and quantitation of radioactive signals was carried out by a Phosphorlmager and scanned using a bioimaging analyzer (Personal Molecular Imager® FX Bio-Rad). […]
smiles,measurement,value
"CNCC(Cl)c1ccc(OC(C)=O)cc1.Cl (stereo not shown) [CpdA, 2-(4-acetoxyphenyl)-2-chloro-N-methyl-ethylammonium chloride]",NFkB available for DNA binding (EMSA),significant impairment of NFkB available for DNA binding
